The values that follow are results of earlier work, collected in patent US20170157095A1, “ALLISARTAN ISOPROXIL SOLID DISPERSION AND PHARMACEUTICAL COMPOSITION” (SHENZHEN SALUBRIS PHARMACEUTICALS CO., LTD, priority 2014, published 2017).

Each structure is given as a SMILES string.

As to `CCCCc1nc(Cl)c(C(=O)OCOC(=O)OC(C)C)n1Cc1ccc(-c2ccccc2-c2nnn[nH]2)cc1` [Allisartan isoproxil, 2-butyl-4-chloro-1-[2′-(1H-tetrazol-5-yl)-1,1′-biphenyl-methyl]-imidazole-5-carboxylic acid, 1-[(isopropoxy)-carbonyloxy]-methyl ester], the solubility in water result is listed as “low”.
